We go through 25 molecules from patent US20240226026A1, “BRANCHED TAIL LIPID COMPOUNDS AND COMPOSITIONS FOR INTRACELLULAR DELIVERY OF THERAPEUTIC AGENTS” (ModernaTX, Inc., priority 2021, published 2024).

For series [1], the system named is CD-1 mice. Description: Expression of hEPO induced by LNPs (mRNA encoding hEPO) administered to mice. It is filed as in vivo. The following applies: serum, 6 h after intravenous injection, ELLA Simple Plex Assay; for Avg. hEPO Concentration (mIU/mL): Table 4b. Here is the method: In some embodiments, hEPO concentrations were determined using an […] (ELLA) Simple Plex Assay (ProteinSimple) with a Human Erythroprotein cartridge. Standards for this assay are calibrated according to the 2. IRP WHO preparation. Nanoparticle compositions including mRNA are useful in the evaluation of the efficacy and usefulness of various formulations for the delivery of therapeutic and/or prophylactics. Higher levels of protein expression induced by administration of a composition including an mRNA will be indicative of higher mRNA translation and/or nanoparticle composition mRNA delivery efficiencies. As the non-RNA components are not thought to affect translational machineries themselves, a higher level of protein expression is likely indicative of a higher efficiency of delivery of the therapeutic and/or prophylactic by a given nanoparticle composition relative to other nanoparticle compositions or the absence thereof.
To assess potency of expression of lipids of the disclosure, the protein expression (hEPO) following administration of a nanoparticle comprising a lipid of the disclosure (e.g., a loaded LNP) to mice was measured.
Lipid nanoparticles (LNPs) including DSPC as a phospholipid, cholesterol as a structural lipid, PL-II (e.g., PEG-1) as a PEG lipid, a lipid according to Formula (I-1), (I), (I-A), (I-A1), (I-A2), (I-A3), or (I-A4), and an mRNA encoding hEPO were intravenously administered to CD-1 mice. The concentration of hEPO in serum was tested at 6 h after injection.

The nature of series [2]: Particle size (diameter) and polydispersity index of lipid nanoparticles. It counts as physicochemical. The following applies: nanoparticles comprising the lipid. The method, then: A Zetasizer Nano ZS (Malvern Instruments Ltd, Malvern, Worcestershire, UK) can be used to determine the particle size, the polydispersity index (PDI) and the zeta potential of the nanoparticle compositions in 1×PBS in determining particle size and 15 mM PBS in determining zeta potential.
Lipid nanoparticles (e.g., empty LNPs or loaded LNPs) may be characterized by a variety of methods. For example, microscopy (e.g., transmission electron microscopy or scanning electron microscopy) may be used to examine the morphology and size distribution of a nanoparticle composition. Dynamic light scattering or potentiometry (e.g., potentiometric titrations) may be used to measure zeta potentials. Dynamic light scattering may also be utilized to determine particle sizes. Instruments such as the Zetasizer Nano ZS (Malvern Instruments Ltd, Malvern, Worcestershire, UK) may also be used to measure multiple characteristics of a nanoparticle composition, such as particle size, polydispersity index, and zeta potential.
(§1) Lipid nanoparticles (e.g., empty LNPs or loaded LNPs) including DSPC as a phospholipid, cholesterol as a structural lipid, PL-II (e.g., PEG-1) as a PEG lipid, and a lipid according to Formula (I-1), (I), (I-A), (I-A1), (I-A2), (I-A3), or (I-A4) were prepared. In some embodiments, the lipid nanoparticles further included rhodamine-DOPE as a fluorescent lipid. Tables 2a, 2b, and 3 summarize the characteristics of the formulations.

Series [3] can be described thus: Encapsulation efficiency (% EE) of lipid nanoparticles. The following applies: nanoparticles comprising the lipid. It counts as physicochemical. The method, then:
For nanoparticle compositions including an RNA, a QUANT-IT™ RIBOGREEN® RNA assay (Invitrogen Corporation Carlsbad, CA) can be used to evaluate the encapsulation of an RNA by the nanoparticle composition. The samples are diluted to a concentration of approximately 5 μg/mL in a TE buffer solution (10 mM Tris-HCl, 1 mM EDTA, pH 7.5). 50 μL of the diluted samples are transferred to a polystyrene 96 well plate and either 50 μL of TE buffer or 50 μL of a 2% Triton X-100 solution is added to the wells. The plate is incubated at a temperature of 37° C. for 15 minutes. The RIBOGREEN® reagent is diluted 1:100 in TE buffer, and 100 μL of this solution is added to each well. The fluorescence intensity can be measured using a fluorescence plate reader (Wallac Victor 1420 Multilablel Counter; Perkin Elmer, Waltham, MA) at an excitation wavelength of, for example, about 480 nm and an emission wavelength of, for example, about 520 nm. The fluorescence values of the reagent blank are subtracted from that of each of the samples and the percentage of free RNA is determined by dividing the fluorescence intensity of the intact sample (without addition of Triton X-100) by the fluorescence value of the disrupted sample (caused by the addition of Triton X-100).
The efficiency of encapsulation of a therapeutic and/or prophylactic describes the amount of therapeutic and/or prophylactic that is encapsulated or otherwise associated with a lipid nanoparticle (e.g., an empty LNP or a loaded LNP) after preparation, relative to the initial amount provided. The encapsulation efficiency is desired to be high (e.g., close to 100%). The encapsulation efficiency may be measured, for example, by comparing the amount of therapeutic and/or prophylactic in a solution containing a loaded LNP before and after breaking up the loaded LNP with one or more organic solvents or detergents. Fluorescence may be used to measure the amount of free therapeutic and/or prophylactic (e.g., RNA) in a solution. For the loaded LNPs formulated with lipids of the disclosure, the encapsulation efficiency of a therapeutic and/or prophylactic is at least 50%, for example 50%, 55%, 60%, 65%, 70%, 75%, 80%, 85%, 90%, 91%, 92%, 93%, 94%, 95%, 96%, 97%, 98%, 99%, or 100%. In some embodiments, the encapsulation efficiency is at least 80%. In some embodiments, the encapsulation efficiency is at least 90%. In some embodiments, the encapsulation efficiency of the therapeutic and/or prophylactic agent is between 80% and 100%.
as §1

Series [4] can be described thus: Lipid nanoparticle surface hydrophobicity by Generalized Polarization by Laurdan (N-GP). It counts as physicochemical. The following applies: Table 2b; nanoparticles comprising the lipid. The source says: Surface hydrophobicity of nanoparticles of the disclosure can be measured by Generalized Polarization by Laurdan (GPL). In this method, Laurdan, a fluorescent aminonaphthalene ketone lipid, is post-inserted into the nanoparticle surface and the fluorescence spectrum of Laurdan is collected to determine the normalized Generalized Polarization (N-GP). In some embodiments, nanoparticles formulated with lipids of the disclosure have a surface hydrophobicity expressed as N-GP of between about 0.5 and about 1.5. For example, in some embodiments, nanoparticles formulated with lipids of the disclosure have a surface hydrophobicity expressed as N-GP of about 0.5, about 0.6, about 0.7, about 0.8, about 0.9, about 1.0, about 1.1, about 1.2, about 1.3, about 1.4, or about 1.5. In some embodiments, nanoparticles formulated with lipids of the disclosure have a surface hydrophobicity expressed as N-GP of about 1.0 or about 1.1.

A short description of series [5]: Apparent pKa of lipid nanoparticles. It is filed as physicochemical. The following applies: Table 2b; 95% confidence interval.

For the molecule `CCCCCCCCC(CCCCCCCC)OC(=O)CCCCCCCN(CCCCCCCC(=O)OCCC(CCCC)CCCC)CCCNC(=O)C1CN(C(C)=O)C1` [Compound 60], in series [1], the “Avg. hEPO Concentration (mIU/mL)” value stood at 2.10E+02 mIU/mL.
As to `CCCCCC(CCCCC)CCOC(=O)CCCCCCCN(CCCCCCCC(=O)OCCC(CCCC)CCCC)CCCNC(=O)C1(C)CC1` [Compound 11], the entries for the “Diameter (nm)” value in series [2] (Table 2b) and in series [2] (Table 3) were 200.1 nm and 117 nm, respectively. In addition, the PDI is 0.199 in series [2] (Table 2b) and 0.262 in series [2] (Table 3). For the same molecule, the “% EE” value in series [3] (Table 2b) was 18.2%; in series [3] (Table 3), 34.3%. Further, in series [4], the “LNP surface hydrophobicity (N-GP*)” value was found to be 1.01. In addition, the “Apparent pKa 95% CI” value in series [5] was 6.906 to 6.961. Besides, in series [1] (Table 4a), the “Avg. hEPO Concentration (mIU/mL)* ± Avg. SD” value amounted to 4.15E+06 ± 8.08E+04 mIU/mL.
Take `CCCCCCCCC(CCCCCCCC)OC(=O)CCCCCCCN(CCCCCCCC(=O)OCCC(CCCC)CCCC)CCCNC(=O)C1CCCO1` (stereo not drawn) [Compound 43]: the “Avg. hEPO Concentration (mIU/mL)” value in series [1] was determined as 2.23E+06 mIU/mL.
Still for that read-out and setting: the result for `CCCCCCCCC(CCCCCCCC)OC(=O)CCCCCCCN(CCCCCCCC(=O)OCCC(CCCC)CCCC)CCCNC(=O)CNC(C)=O` [Compound 46] reads 3.88E+03 mIU/mL; that for `CCCCCCCCC(CCCCCCCC)OC(=O)CCCCCCCN(CCCCCCCC(=O)OCCC(CCCC)CCCC)CCCNC(=O)C(C)O` (stereo not drawn) [Compound 35], 1.54E+05 mIU/mL; that for `CCCCCCCCC(CCCCCCCC)OC(=O)CCCCCCCN(CCCCCCCC(=O)OCCC(CCCC)CCCC)CCCNC(=O)C1CCN(C(C)=O)C1` (stereo not drawn) [Compound 48], 1.47E+02 mIU/mL.
The same measure, in the same setting: with `CCCCCCCCC(CCCCCCCC)OC(=O)CCCCCCCN(CCCCCCCC(=O)OCCC(CCCC)CCCC)CCCNC(=O)C1CCOCC1` [Compound 40] the figure was 2.16E+06 mIU/mL.
Same read-out and setting: the result for `CCCCCCCCC(CCCCCCCC)OC(=O)CCCCCCCN(CCCCCCCC(=O)OCCC(CCCC)CCCC)CCCNC(=O)COC` [Compound 38] reads 6.13E+05 mIU/mL; that for `CCCCCCCCC(CCCCCCCC)OC(=O)CCCCCCCN(CCCCCCCC(=O)OCCC(CCCC)CCCC)CCCNC(=O)C1(C)CCOC1` (stereo not drawn) [Compound 55], 2.61E+06 mIU/mL; that for `CCCCCCCCC(CCCCCCCC)OC(=O)CCCCCCCN(CCCCCCCC(=O)OCCC(CCCC)CCCC)CCCNC(=O)C(C)(C)C` [Compound 32], 1.54E+06 mIU/mL.
Consider `CCCCCCCCC(CCCCCCCC)OC(=O)CCCCCCCN(CCCCCCCC(=O)OCCC(CCCC)CCCC)CCCNC(=O)C#CC1CC1` [Compound 50], for which the “Avg. hEPO Concentration (mIU/mL)” value in series [1] stood at 2.60E+05 mIU/mL.
On the same count and under the same terms, the result for `CCCCCCCCC(CCCCCCCC)OC(=O)CCCCCCCN(CCCCCCCC(=O)OCCC(CCCC)CCCC)CCCNC=O` [Compound 59] reads 3.27E+05 mIU/mL; that for `CCCCCCCCC(CCCCCCCC)OC(=O)CCCCCCCN(CCCCCCCC(=O)OCCC(CCCC)CCCC)CCCNC(=O)CC` [Compound 30], 4.73E+06 mIU/mL.
Still for that read-out and setting: with `CCCCCCCCC(CCCCCCCC)OC(=O)CCCCCCCN(CCCCCCCC(=O)OCCC(CCCC)CCCC)CCCNC(=O)C1CC1` [Compound 39] the figure was 2.93E+06 mIU/mL.
The same measure, in the same setting: the result for `CCCCCCCCC(CCCCCCCC)OC(=O)CCCCCCCN(CCCCCCCC(=O)OCCC(CCCC)CCCC)CCCNC(=O)c1ccccc1` [Compound 33] reads 1.78E+05 mIU/mL; that for `CC#CC(=O)NCCCN(CCCCCCCC(=O)OCCC(CCCC)CCCC)CCCCCCCC(=O)OC(CCCCCCCC)CCCCCCCC` [Compound 47], 1.17E+06 mIU/mL.
In the case of `CCCCCCCCC(CCCCCCCC)OC(=O)CCCCCCCN(CCCCCCCC(=O)OCCC(CCCC)CCCC)CCCNC(C)=O` [Compound 29], the “Avg. hEPO Concentration (mIU/mL)” value in series [1] came out at 7.06E+05 mIU/mL.
Same read-out and setting: with `CCCCCCCCC(CCCCCCCC)OC(=O)CCCCCCCN(CCCCCCCC(=O)OCCC(CCCC)CCCC)CCCNC(=O)C1(CC)CC1` [Compound 37] the figure was 1.39E+06 mIU/mL; with `CCCCCCCCC(CCCCCCCC)OC(=O)CCCCCCCN(CCCCCCCC(=O)OCCC(CCCC)CCCC)CCCNC(=O)C1(C)CCCCC1` [Compound 58], 4.17E+05 mIU/mL.
The same measure, in the same setting: the result for `CCCCCCCCC(CCCCCCCC)OC(=O)CCCCCCCN(CCCCCCCC(=O)OCCC(CCCC)CCCC)CCCNC(=O)C1CCCCC1` [Compound 41] reads 1.31E+06 mIU/mL; that for `CCCCCCCCC(CCCCCCCC)OC(=O)CCCCCCCN(CCCCCCCC(=O)OCCC(CCCC)CCCC)CCCNC(=O)C1(C)CCC1` [Compound 36], 1.41E+06 mIU/mL.
On the same count and under the same terms, with `CCCCCCCCC(CCCCCCCC)OC(=O)CCCCCCCN(CCCCCCCC(=O)OCCC(CCCC)CCCC)CCCNC(=O)C1CCOC1` (stereo not drawn) [Compound 44] the figure was 1.02E+06 mIU/mL.
Turning to `CCCCCCCCC(CCCCCCCC)OC(=O)CCCCCCCN(CCCCCCCC(=O)OCCC(CCCC)CCCC)CCCNC(=O)C(C)C` [Compound 31], the “Avg. hEPO Concentration (mIU/mL)” value in series [1] came out at 2.31E+06 mIU/mL.
The same measure, in the same setting: the result for `CCCCCCCCC(CCCCCCCC)OC(=O)CCCCCCCN(CCCCCCCC(=O)OCCC(CCCC)CCCC)CCCNC(=O)C1(C)CCCO1` (stereo not drawn) [Compound 56] reads 1.17E+04 mIU/mL; that for `CCCCCCCCC(CCCCCCCC)OC(=O)CCCCCCCN(CCCCCCCC(=O)OCCC(CCCC)CCCC)CCCNC(=O)C12CCC(CC1)CC2` [Compound 42], 1.02E+06 mIU/mL.
